Source: patent publication US9694016B2 (Novartis AG, priority 2013, dated 2017)
Where two headings read alike, the source gives them in different places.

Target: b-Raf (V600E) (Homo sapiens (Human), UniProt P15056, V600E)
Conditions: read-out: b-Raf IC-50, AlphaScreen
[1] = 60 min pre-incubation, reaction 3 hours at room temperature
[2] = 60 min pre-incubation, 3 hours reaction

Sequence of b-Raf (V600E) (P15056 whole entry V600E): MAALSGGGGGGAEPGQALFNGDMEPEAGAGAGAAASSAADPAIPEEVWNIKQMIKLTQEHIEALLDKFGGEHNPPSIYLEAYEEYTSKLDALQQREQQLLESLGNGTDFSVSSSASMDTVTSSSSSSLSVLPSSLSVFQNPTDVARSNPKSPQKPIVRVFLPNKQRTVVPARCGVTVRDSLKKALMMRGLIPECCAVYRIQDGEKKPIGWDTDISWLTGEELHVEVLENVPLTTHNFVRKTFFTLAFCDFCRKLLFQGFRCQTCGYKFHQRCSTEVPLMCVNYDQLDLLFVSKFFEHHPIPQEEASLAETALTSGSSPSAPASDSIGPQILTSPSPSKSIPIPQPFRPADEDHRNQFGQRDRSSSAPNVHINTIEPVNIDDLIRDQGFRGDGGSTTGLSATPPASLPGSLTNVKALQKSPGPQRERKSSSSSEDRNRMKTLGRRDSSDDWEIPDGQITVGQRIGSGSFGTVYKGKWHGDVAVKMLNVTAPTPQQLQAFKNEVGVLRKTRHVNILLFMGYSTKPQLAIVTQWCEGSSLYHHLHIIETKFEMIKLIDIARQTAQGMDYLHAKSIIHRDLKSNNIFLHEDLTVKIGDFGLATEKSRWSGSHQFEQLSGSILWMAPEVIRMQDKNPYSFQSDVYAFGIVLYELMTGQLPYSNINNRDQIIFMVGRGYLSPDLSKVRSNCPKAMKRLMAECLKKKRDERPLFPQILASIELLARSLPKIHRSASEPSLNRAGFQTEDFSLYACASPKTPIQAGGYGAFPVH

Row | SMILES | IC50 (Table 2, 3 hours reaction) [nM] | IC50 [2] [nM] | further results
1 | Cc1ncc(NC(=O)c2cccc(C(C)(C)S(C)(=O)=O)c2)cc1-c1cc(N2CCOCC2)nc(N2CC(O)C2)c1 [Example 1091, N-(2′-(3-hydroxyazetidin-1-yl)-2-methyl-6′-morpholino-[3,4′-bipyridin]-5-yl)-3-(2-(methylsulfonyl)propan-2-yl)benzamide] | – | – | IC50 [1]: 1110 nM
2 | CCOc1ncc(-c2cc(NC(=O)c3cccc(-c4nnco4)c3)cnc2C)cc1N1CCOCC1 [Example 244, N-(6′-ethoxy-2-methyl-5′-morpholino-[3,3′-bipyridin]-5-yl)-3-(1,3,4-oxadiazol-2-yl)benzamide] | 7.6 | – | –
3 | Cn1cc(-c2cc(NC(=O)c3ccnc(C(F)(F)F)c3)cnc2Cl)cc(N2CCOCC2)c1=O [Example 404, N-(2-chloro-1′-methyl-5′-morpholino-6′-oxo-1′,6′-dihydro-[3,3′-bipyridin]-5-yl)-2-(trifluoromethyl)isonicotinamide] | 4.3 | – | –
4 | Cc1ccc(NC(=O)c2cccc(C3COC3)c2)cc1-c1cc(N2CCOCC2)n(C)c(=O)c1 [Example 492, N-(4-methyl-3-(1-methyl-6-morpholino-2-oxo-1,2-dihydropyridin-4-yl)phenyl)-3-(oxetan-3-yl)benzamide] | – | 3 | –
5 | Cc1ccc(NC(=O)c2ccnc(C(C)(F)F)c2)cc1-c1cc(N2CCOCC2)c(=O)n(CCC#N)c1 [Example 334, N-(3-(1-(2-cyanoethyl)-5-morpholino-6-oxo-1,6-dihydropyridin-3-yl)-4-methylphenyl)-2-(1,1-difluoroethyl)isonicotinamide] | 2.3 | – | –
6 | Cc1ncc(NC(=O)c2ccnc(C(C)(C)F)c2)cc1-c1cc(N2CCOCC2)c(=O)n(C)n1 [Example 677, 2-(2-fluoropropan-2-yl)-N-(6-methyl-5-(1-methyl-5-morpholino-6-oxo-1,6-dihydropyridazin-3-yl)pyridin-3-yl)isonicotinamide] | – | 12.7 | –
7 | Cc1ccc(NC(=O)c2cc(C(C)(C)C#N)ccn2)cc1-c1cnc(OC(C)C)c(N2CCOCC2)c1 [Example 948, 4-(2-cyanopropan-2-yl)-N-(3-(6-isopropoxy-5-morpholinopyridin-3-yl)-4-methylphenyl)picolinamide] | – | – | IC50 [1]: 2.33 nM
8 | CCOc1nnc(-c2cc(NC(=O)c3ccc(CO)c(C(F)(F)F)c3)cnc2C)cc1N1CCOCC1 [Example 627, N-(5-(6-ethoxy-5-morpholinopyridazin-3-yl)-6-methylpyridin-3-yl)-4-(hydroxymethyl)-3-(trifluoromethyl)benzamide] | – | 3.7 | –
9 | Cc1ccc(NC(=O)c2ccnc(C(C)(C)F)c2)cc1-c1cc(C2COCCO2)nc(N2CCOCC2)c1 (stereo not drawn) [Example 1144, N-(3-(2-(1,4-dioxan-2-yl)-6-morpholinopyridin-4-yl)-4-methylphenyl)-2-(2-fluoropropan-2-yl)isonicotinamide] | – | – | IC50 [1]: 1.56 nM
10 | CCn1cc(C(=O)Nc2ccc(C)c(-c3cc(N4CCOCC4)c(=O)n(C)c3)c2)c(C)n1 [Example 365, 1-ethyl-3-methyl-N-(4-methyl-3-(1-methyl-5-morpholino-6-oxo-1,6-dihydropyridin-3-yl)phenyl)-1H-pyrazole-4-carboxamide] | 85.9 | – | –
11 | Cc1ccc(NC(=O)c2cnnc(C(C)(C)C#N)c2)cc1-c1cc(NCCO)nc(N2CCOCC2)c1 [Example 1049, 6-(2-cyanopropan-2-yl)-N-(3-(2-((2-hydroxyethyl)amino)-6-morpholinopyridin-4-yl)-4-methylphenyl)pyridazine-4-carboxamide] | – | – | IC50 [1]: 7.69 nM
12 | Cc1ncc(NC(=O)c2cccc(C(F)(F)F)c2)cc1-c1cnc(C(C)(C)C#N)c(N2CCOCC2)c1 [Example 326, N-(6′-(2-cyanopropan-2-yl)-2-methyl-5′-morpholino-[3,3′-bipyridin]-5-yl)-3-(trifluoromethyl)benzamide] | 3.7 | – | –
13 | Cn1cc(-c2cc(NC(=O)c3ccnc(C(F)(F)F)c3)ccc2C#N)cc(N2CCOCC2)c1=O [Example 415, N-(4-cyano-3-(1-methyl-5-morpholino-6-oxo-1,6-dihydropyridin-3-yl)phenyl)-2-(trifluoromethyl)isonicotinamide] | 10100 | – | –
14 | Cc1ncc(NC(=O)c2ccnc(C(C)(C)C#N)c2)cc1-c1cc(NCCO)nc(N2CCOCC2)c1 [Example 1042, 2-(2-cyanopropan-2-yl)-N-(2′-((2-hydroxyethyl)amino)-2-methyl-6′-morpholino-[3,4′-bipyridin]-5-yl)isonicotinamide] | – | – | IC50 [1]: 40.6 nM
15 | Cc1ccc(NC(=O)c2ccnc(C(C)(C)F)c2)cc1-c1cc(N2CCOC[C@H]2C)c(=O)n(C)n1 [Example 673, (R)-2-(2-fluoropropan-2-yl)-N-(4-methyl-3-(1-methyl-5-(3-methylmorpholino)-6-oxo-1,6-dihydropyridazin-3-yl)phenyl)isonicotinamide] | – | 6.3 | –
16 | Cc1ccc(NC(=O)c2ccnc(C3(C#N)CC3)c2)cc1-c1cc(N2CCOCC2)c(=O)n(C)n1 [Example 659, 2-(1-cyanocyclopropyl)-N-(4-methyl-3-(1-methyl-5-morpholino-6-oxo-1,6-dihydropyridazin-3-yl)phenyl)isonicotinamide] | – | 0.7 | –
17 | Cc1ncc(NC(=O)c2ccnc(C(C)C)c2)cc1-c1ccc(C#N)c(N2CCOCC2)c1 [Example 686, N-(5-(4-cyano-3-morpholinophenyl)-6-methylpyridin-3-yl)-2-isopropylisonicotinamide] | – | 1.7 | –
18 | Cc1ncc(NC(=O)c2ccnc(C(C)(C)C#N)c2)cc1-c1cc(N2CCOCC2)c(S(C)(=O)=O)nn1 [Example 924, 2-(2-cyanopropan-2-yl)-N-(6-methyl-5-(6-(methylsulfonyl)-5-morpholinopyridazin-3-yl)pyridin-3-yl)isonicotinamide] | – | – | IC50 [1]: 57.7 nM
19 | Cc1ccc(NC(=O)c2cccc(C(F)(F)F)c2)cc1-c1cc(N2CCOCC2)c(=O)n(CC#N)c1 [Example 147, N-(3-(1-(cyanomethyl)-5-morpholino-6-oxo-1,6-dihydropyridin-3-yl)-4-methylphenyl)-3-(trifluoromethyl)benzamide] | 1 | – | –
20 | CCOc1cc(C(=O)Nc2cnc(C)c(-c3cc(N4CCOCC4)c(=O)n(C)c3)c2)ccc1F [Example 395, N-(1′,2-dimethyl-5′-morpholino-6′-oxo-1′,6′-dihydro-[3,3′-bipyridin]-5-yl)-3-ethoxy-4-fluorobenzamide] | 9.8 | – | –
21 | Cc1ncc(NC(=O)c2ccnc(C(C)(C)O)c2)cc1-c1cnc(OC2CCOCC2)c(N2CCOCC2)c1 [Example 939, 2-(2-hydroxypropan-2-yl)-N-(2-methyl-5′-morpholino-6′-((tetrahydro-2H-pyran-4-yl)oxy)-[3,3′-bipyridin]-5-yl)isonicotinamide] | – | – | IC50 [1]: 15.3 nM
22 | Cc1ncc(NC(=O)c2ccnc(C(C)(F)F)c2)cc1-c1cc(N2CCOCC2)nc(N2CC(C)(O)C2)c1 [Example 1105, 2-(1,1-difluoroethyl)-N-(2′-(3-hydroxy-3-methylazetidin-1-yl)-2-methyl-6′-morpholino-[3,4′-bipyridin]-5-yl)isonicotinamide] | – | – | IC50 [1]: 5.62 nM
23 | CCOc1ncc(-c2cc(NC(=O)c3cccc(C(F)(F)F)c3)cnc2C)cc1N1CCOCC1 [Example 248, N-(6′-ethoxy-2-methyl-5′-morpholino-[3,3′-bipyridin]-5-yl)-3-(trifluoromethyl)benzamide] | 1.2 | – | –
24 | Cc1ncc(C(=O)Nc2cccc(C(F)(F)F)c2)cc1-c1cc(N2CCOCC2)c(=O)n(C)c1 [Example 443, 1′,2-dimethyl-5′-morpholino-6′-oxo-N-(3-(trifluoromethyl)phenyl)-1′,6′-dihydro-[3,3′-bipyridine]-5-carboxamide] | – | 6.2 | –
25 | Cc1ccc(NC(=O)c2ccnc(C(F)F)c2)cc1-c1cc(N2CCOCC2)c(OC(C)C)nn1 [Example 593, 2-(difluoromethyl)-N-(3-(6-isopropoxy-5-morpholinopyridazin-3-yl)-4-methylphenyl)isonicotinamide] | – | 0.6 | –
26 | Cc1ncc(NC(=O)c2ccnc(C(C)(C)C)c2)cc1-c1cc(N2CCOCC2)c(=O)n(C)c1 [Example 399, 2-(tert-butyl)-N-(1′,2-dimethyl-5′-morpholino-6′-oxo-1′,6′-dihydro-[3,3′-bipyridin]-5-yl)isonicotinamide] | 42.7 | – | –

Continued, in another order:

Row | IC50 (Table 2, 3 hours reaction) [nM] | IC50 [2] [nM] | SMILES | further results
27 | – | 2.3 | Cc1ccc(NC(=O)c2ccnc(C(C)C)c2)cc1-c1cc(N2CCOCC2)nc(OC2CNC2)n1 [Example 778, N-(3-(2-(azetidin-3-yloxy)-6-morpholinopyrimidin-4-yl)-4-methylphenyl)-2-isopropylisonicotinamide] | –
28 | – | 0.5 | CCNc1nc(-c2cc(NC(=O)c3ccnc(C4(C#N)CC4)c3)ccc2C)cc(N2CCOCC2)n1 [Example 708, 2-(1-cyanocyclopropyl)-N-(3-(2-(ethylamino)-6-morpholinopyrimidin-4-yl)-4-methylphenyl)isonicotinamide] | –
29 | – | 2.8 | Cc1ccc(NC(=O)c2ccnc(C(F)(F)F)c2)cc1-c1cc(N2CCOCC2)nc(N(C)C)n1 [Example 758, N-(3-(2-(dimethylamino)-6-morpholinopyrimidin-4-yl)-4-methylphenyl)-2-(trifluoromethyl)isonicotinamide] | –
30 | – | 8.5 | CCNc1nc(-c2cc(NC(=O)c3cnnc(C4CC4)c3)cnc2C)cc(N2CCOCC2)n1 [Example 727, 6-cyclopropyl-N-(5-(2-(ethylamino)-6-morpholinopyrimidin-4-yl)-6-methylpyridin-3-yl)pyridazine-4-carboxamide] | –
31 | – | 6.9 | Cc1ccc(NC(=O)c2ccnc(C(C)(C)C#N)c2)cc1-c1cc(N2CCOCC2)nc(NCCO)n1 [Example 734, 2-(2-cyanopropan-2-yl)-N-(3-(2-((2-hydroxyethyl)amino)-6-morpholinopyrimidin-4-yl)-4-methylphenyl)isonicotinamide] | –
32 | – | 4.6 | Cc1ccc(NC(=O)c2ccnc(C(C)(C)C#N)c2)cc1-c1cc(N2CCOCC2)nc(N[C@@H](C)CO)n1 [Example 746] | –
33 | – | 4.2 | Cc1ccc(NC(=O)c2ccnc(C(C)(F)F)c2)cc1-c1cc(N2CCOCC2)nc(N(C)C)n1 [Example 756, 2-(1,1-difluoroethyl)-N-(3-(2-(dimethylamino)-6-morpholinopyrimidin-4-yl)-4-methylphenyl)isonicotinamide] | –
